Assay [1] addresses T1, SSAO (bovine plasma amine oxidase, PAO) (Bos taurus, UniProt Q29437).
T1 construct: Bovine plasma amine oxidase (PAO) was purchased from Worthington Biochemical; purchased Worthington Biochemical (Lakewood, N.J.)
T1 sequence (Q29437 17-762): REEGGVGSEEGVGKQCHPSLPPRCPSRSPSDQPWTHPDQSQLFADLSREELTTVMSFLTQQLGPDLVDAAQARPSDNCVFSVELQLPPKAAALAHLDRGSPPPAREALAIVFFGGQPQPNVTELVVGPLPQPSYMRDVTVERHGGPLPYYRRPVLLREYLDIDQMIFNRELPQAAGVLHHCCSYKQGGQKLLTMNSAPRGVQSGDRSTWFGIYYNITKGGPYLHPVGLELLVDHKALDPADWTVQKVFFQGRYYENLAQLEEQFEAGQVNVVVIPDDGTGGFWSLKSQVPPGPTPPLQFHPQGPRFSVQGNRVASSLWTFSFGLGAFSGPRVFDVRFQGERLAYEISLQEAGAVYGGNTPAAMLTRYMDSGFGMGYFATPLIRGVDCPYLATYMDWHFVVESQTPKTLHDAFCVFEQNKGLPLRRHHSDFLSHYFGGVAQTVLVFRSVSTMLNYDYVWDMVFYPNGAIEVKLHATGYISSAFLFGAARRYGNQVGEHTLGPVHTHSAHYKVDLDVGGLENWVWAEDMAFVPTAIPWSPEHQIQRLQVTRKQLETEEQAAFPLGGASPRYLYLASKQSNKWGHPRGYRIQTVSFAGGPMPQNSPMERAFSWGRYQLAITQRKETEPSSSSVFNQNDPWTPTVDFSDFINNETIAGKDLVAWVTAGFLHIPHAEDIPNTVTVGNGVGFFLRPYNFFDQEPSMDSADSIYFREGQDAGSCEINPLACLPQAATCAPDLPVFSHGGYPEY
The experiment in a line: In vitro inhibition of SSAO activity, coupled colorimetric method. The assay is classed as biochemical. The note with it: 30 min preincubation, benzylamine substrate; read-out: SSAO Inhibitory Activity IC50. The protocol:
SSAO activity was measured using the coupled colorimetric method essentially as described for monoamine oxidase and related enzymes (Holt A. et al. (1997) Anal. Biochem. 244:384). Bovine plasma amine oxidase (PAO) was purchased from Worthington Biochemical (Lakewood, N.J.) and used as a source of SSAO for activity measurements. The SSAO assay was performed in 96 well microtitre plates as follows. A pre-determined amount of inhibitor diluted in 0.2 M potassium phosphate buffer, pH 7.6, was added to each well, if required. The amount of inhibitor varied in each assay but was generally at a final concentration of between 10 nM and 10 μM. Controls lacked inhibitor. In order to study the effects of potential inhibitors 50 μl of inhibitor solution were preincubated for 30 min at 37° C. with 0.4 mU of PAO in an a total volume of 130 μl of 0.2 M potassium phosphate buffer pH 7.6. Assays were then started by addition of 20 μl 10 mM benzylamine substrate and incubated for 20 min at 37° C. The following reagents were then added to a final reaction volume of 200 μl, 50 μl of freshly made chromogenic solution containing […] vanillic acid (Sigma # V-2250), […] 4-aminoantipyrine (Sigma # A-4328) and 12 U/ml horseradish peroxidase (Sigma # P-8250) in order to cause a change of 0.5 OD A490 per hour. This was within the linear response range of the assay. The plates were incubated for 1 hr at 37° C. and the increase in absorbance, reflecting SSAO activity, was measured at 490 nm using a microplate spectrophotometer (Power Wave 40, Bio-Tek Inst.). Inhibition was presented as percent inhibition compared to control after correcting for background absorbance and IC50 values calculated using GraphPad Prism software.

In a further assay the target is T2, recombinant human MAO-A (Homo sapiens, UniProt P21397).
T2 construct: purchased BD Biosciences (MA, USA)
T2 sequence (P21397 1-527): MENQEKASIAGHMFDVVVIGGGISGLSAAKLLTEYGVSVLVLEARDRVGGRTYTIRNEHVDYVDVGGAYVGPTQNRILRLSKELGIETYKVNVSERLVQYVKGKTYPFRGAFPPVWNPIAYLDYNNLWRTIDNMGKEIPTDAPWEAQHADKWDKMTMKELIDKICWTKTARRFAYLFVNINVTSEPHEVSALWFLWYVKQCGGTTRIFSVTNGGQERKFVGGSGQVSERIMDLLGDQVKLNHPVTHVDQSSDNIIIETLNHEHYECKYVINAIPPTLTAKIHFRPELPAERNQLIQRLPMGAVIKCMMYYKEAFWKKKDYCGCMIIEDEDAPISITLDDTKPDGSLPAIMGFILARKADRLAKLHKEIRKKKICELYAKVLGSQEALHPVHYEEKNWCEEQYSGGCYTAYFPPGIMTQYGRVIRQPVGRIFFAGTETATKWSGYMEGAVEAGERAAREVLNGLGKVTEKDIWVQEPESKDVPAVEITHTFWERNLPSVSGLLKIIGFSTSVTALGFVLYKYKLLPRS
The experiment in a line: Inhibition of MAO-A activity, colorimetric. The assay is classed as biochemical. The note with it: for Specificity for SSAO vs. MAO-A: ratio IC50 MAO-A to IC50 SSAO. The protocol:
The specificity of the different SSAO inhibitors was tested by determining their ability to inhibit MAO-A and MAO-B activities in vitro. Recombinant human MAO-A and human MAO-B enzymes were obtained from BD Biosciences (MA, USA). […] A pre-determined amount of inhibitor diluted in 0.2 M potassium phosphate buffer, pH 7.6, was added to each well, if required. […] Controls lacked inhibitor. The following agents were then added to a final reaction volume of 200 μl in 0.2 M potassium phosphate buffer, pH 7.6: 0.04 mg/ml of MAO-A or 0.07 mg/ml MAO-B enzyme, 15 μl of 10 mM tyramine substrate (for MAO-A), or 15 μl 100 mM benzylamine substrate (for MAO-B), and 50 μl of freshly made chromogenic solution (as above). The plates were incubated for 60 min at 37° C. The increase in absorbance, reflecting MAO activity, was measured at 490 nm using microplate spectrophotometer (Power Wave 40, Bio-Tek Inst.). Inhibition was presented as percent inhibition compared to control after correcting for background absorbance and IC50 values calculated using GraphPad Prism software.

Where [2] appears, read: tyramine substrate, no pre-incubation, read-out: MAO-A Inhibitory Activity IC50.

Structures can show the parent of a compound that is named as a salt. Where two headings read alike, the source gives them in different places.

Turning to `C=C(CNN)c1ccccc1` [Example 2, Hydrochloride], the results for the IC50 (in assay [1]; on recombinant human MAO-A) were 0.035 µM and 225 µM, respectively. The “Specificity for SSAO vs. MAO-A” value at recombinant human MAO-A is listed as 6,400.
In the case of `C=C(CNN)c1ccc(F)cc1.Cl` [Example 8, N-[2-(4′-fluorophenyl)-allyl]-hydrazine Hydrochloride], the IC50 in assay [1] was 0.032 µM; at recombinant human MAO-A (setting [2]), 2.2 µM. Also, the “Specificity for SSAO vs. MAO-A” value at recombinant human MAO-A was found to be 69.
On the same counts, the results for `Cl.NNC/C(=C/F)c1ccccc1` [Example 10, (E)-1-fluoro-2-phenyl-3-hydrazinopropene Hydrochloride] are 0.065 µM, 2.8 µM and 43.

The values are drawn from US20050096360A1, “Inhibitors of semicarbazide-sensitive amine oxidase (SSAO) and VAP-1 mediated adhesion useful for treatment of diseases” (priority 2003, published 2005).
